Measured values from PubChem BioAssay (NCI).
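All cell lines were grown in 96-well plates and treated with compound for 48 hours. The concentration for full growth arrest is given as TGI.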

Key:
Test in all cases: NCI tumour cell line growth inhibition, 48 h
RXF-631 renal = tested on: RXF-631 renal
KM20L2 colon = tested on: KM20L2 colon
IGROV1 ovarian = tested on: IGROV1 ovarian
HT29 colon = tested on: HT29 colon
SK-OV-3 ovarian = tested on: SK-OV-3 ovarian
SW-620 colon = tested on: SW-620 colon
EKVX NSCLC = tested on: EKVX NSCLC
ACHN renal = tested on: ACHN renal
UO-31 renal = tested on: UO-31 renal
HCT-15 colon = tested on: HCT-15 colon
NCI-H23 lung = tested on: NCI-H23 lung
MOLT-4 leukemia = tested on: MOLT-4 leukemia
M19-MEL melanoma = tested on: M19-MEL melanoma
SNB-78 CNS = tested on: SNB-78 CNS
COLO 205 colon = tested on: COLO 205 colon
786-0 renal = tested on: 786-0 renal
CAKI-1 renal = tested on: CAKI-1 renal
SK-MEL-28 melanoma = tested on: SK-MEL-28 melanoma
DMS 114 small cell lung = tested on: DMS 114 small cell lung
SR leukemia = tested on: SR leukemia
U251 CNS = tested on: U251 CNS
UACC-257 melanoma = tested on: UACC-257 melanoma
CCRF-CEM leukemia = tested on: CCRF-CEM leukemia
DLD-1 colon = tested on: DLD-1 colon
NCI-H460 lung = tested on: NCI-H460 lung
SF-539 CNS = tested on: SF-539 CNS
OVCAR-8 ovarian = tested on: OVCAR-8 ovarian
KM12 colon = tested on: KM12 colon
HCT-116 colon = tested on: HCT-116 colon
A549 NSCLC = tested on: A549 NSCLC
LXFL 529 NSCLC = tested on: LXFL 529 NSCLC
SNB-75 CNS = tested on: SNB-75 CNS
SN12C renal = tested on: SN12C renal
RPMI-8226 leukemia = tested on: RPMI-8226 leukemia
HOP-62 NSCLC = tested on: HOP-62 NSCLC
DMS 273 small cell lung = tested on: DMS 273 small cell lung
XF 498 CNS = tested on: XF 498 CNS
A498 renal = tested on: A498 renal
SF-295 CNS = tested on: SF-295 CNS
RXF 393 renal = tested on: RXF 393 renal
OVCAR-3 ovarian = tested on: OVCAR-3 ovarian
OVCAR-4 ovarian = tested on: OVCAR-4 ovarian
HCC-2998 colon = tested on: HCC-2998 colon
K-562 leukemia = tested on: K-562 leukemia
UACC-62 melanoma = tested on: UACC-62 melanoma
HL-60(TB) leukemia = tested on: HL-60(TB) leukemia
SNB-19 CNS = tested on: SNB-19 CNS
SK-MEL-2 melanoma = tested on: SK-MEL-2 melanoma
SF-268 CNS = tested on: SF-268 CNS
OVCAR-5 ovarian = tested on: OVCAR-5 ovarian
MALME-3M melanoma = tested on: MALME-3M melanoma
TK-10 renal = tested on: TK-10 renal
M14 melanoma = tested on: M14 melanoma
SK-MEL-5 melanoma = tested on: SK-MEL-5 melanoma
NCI-H522 lung = tested on: NCI-H522 lung
HOP-92 NSCLC = tested on: HOP-92 NSCLC
NCI-H226 lung = tested on: NCI-H226 lung
LOX IMVI melanoma = tested on: LOX IMVI melanoma
HOP-18 NSCLC = tested on: HOP-18 NSCLC

Measured: TGI

COc1ccc(-c2cc(=O)c3cc(C)c(C)c(C(=O)O)c3o2)cc1
45.6 µM: DMS 114 small cell lung
94.4 µM: ACHN renal
30.7 µM: UACC-62 melanoma
not listed: SF-268 CNS | OVCAR-5 ovarian | MALME-3M melanoma | TK-10 renal | M14 melanoma | SK-MEL-5 melanoma | NCI-H522 lung | HOP-92 NSCLC | NCI-H226 lung | LOX IMVI melanoma | HOP-18 NSCLC
> 100 µM: all other assays above

C[N+](C)(C)C1CC([N+](C)(C)C)C2c3ccccc3C21 (configuration not stated)
not listed: MOLT-4 leukemia | SR leukemia | SK-MEL-2 melanoma | HOP-18 NSCLC
> 100 µM: all other assays above

COC(=O)N/N=C(\C)CC(=O)Nc1cccc([N+](=O)[O-])c1
not listed: RXF-631 renal | ACHN renal | HCT-15 colon | CAKI-1 renal | SR leukemia | SN12C renal | A498 renal | OVCAR-4 ovarian | SNB-19 CNS | HOP-18 NSCLC
> 100 µM: all other assays above

C/C(=C\C(C[C@](C)(O)C(O)CCC#C[Si](C)(C)C)S(=O)(=O)c1ccccc1)CC/C=C/CO[Si](C)(C)C(C)(C)C (some centres not stated)
37 µM: SF-539 CNS
41 µM: IGROV1 ovarian
38.4 µM: EKVX NSCLC
37.7 µM: TK-10 renal
24 µM: KM20L2 colon
35.3 µM: SW-620 colon
40.3 µM: SK-OV-3 ovarian
26.9 µM: OVCAR-5 ovarian
12.7 µM: HT29 colon
35.6 µM: SNB-78 CNS
33.2 µM: HL-60(TB) leukemia
33 µM: CAKI-1 renal | NCI-H522 lung
27 µM: NCI-H460 lung
44.1 µM: SK-MEL-2 melanoma
31.6 µM: RPMI-8226 leukemia
25.5 µM: HOP-92 NSCLC
19 µM: SN12C renal
48.2 µM: DLD-1 colon
31.1 µM: SF-295 CNS
40.4 µM: MALME-3M melanoma
34 µM: M14 melanoma
31.5 µM: 786-0 renal
29 µM: K-562 leukemia
26.2 µM: XF 498 CNS
31.3 µM: RXF 393 renal
26.6 µM: HCT-116 colon
30.6 µM: DMS 273 small cell lung
34.4 µM: HCT-15 colon
27.9 µM: OVCAR-4 ovarian
36.4 µM: UO-31 renal
41.9 µM: NCI-H23 lung
38.8 µM: NCI-H226 lung
29.6 µM: ACHN renal | OVCAR-3 ovarian
23.9 µM: RXF-631 renal
31.9 µM: A498 renal
28.9 µM: CCRF-CEM leukemia
33.6 µM: OVCAR-8 ovarian
41.6 µM: SNB-19 CNS
40.6 µM: HCC-2998 colon
32.9 µM: DMS 114 small cell lung
26.5 µM: U251 CNS
30.2 µM: A549 NSCLC
39.2 µM: HOP-62 NSCLC
32.5 µM: M19-MEL melanoma | UACC-257 melanoma
33.9 µM: UACC-62 melanoma
23.1 µM: MOLT-4 leukemia
32.6 µM: KM12 colon
28.7 µM: LOX IMVI melanoma
28.1 µM: SK-MEL-5 melanoma

N#Cc1ccc(OCCSCCCCCCCCCCSCCOc2ccc(C#N)cc2)cc1
not listed: RXF-631 renal | HT29 colon | CAKI-1 renal | SR leukemia | DLD-1 colon | HCT-116 colon | DMS 273 small cell lung | XF 498 CNS | OVCAR-4 ovarian | SNB-19 CNS | HOP-92 NSCLC
> 100 µM: all other assays above

Nc1ccn(CCOC(c2ccccc2)P(=O)(O)O)c(=O)n1 (configuration not stated)
not listed: RXF-631 renal | RPMI-8226 leukemia | HOP-62 NSCLC | OVCAR-4 ovarian | K-562 leukemia | M14 melanoma | HOP-92 NSCLC | HOP-18 NSCLC
> 100 µM: all other assays above

CNS(=O)(=O)NNS(=O)(=O)c1ccc(F)cc1
not listed: SK-OV-3 ovarian | SNB-78 CNS | SK-MEL-28 melanoma | SN12C renal | HCC-2998 colon | OVCAR-5 ovarian | MALME-3M melanoma | TK-10 renal | HOP-92 NSCLC | HOP-18 NSCLC
> 100 µM: all other assays above
